Results: patent US12391686B2, “Compounds and uses thereof” (Foghorn Therapeutics Inc., priority 2019, dated 2025)

Biological target: T1, Nanoluciferase-BRD9 fusion protein (3×FLAG-NLuc-BRD9) in SYO-1 cells (Homo sapiens, UniProt Q9H8M2)
T1 construct: expressed in transfected cells; host or cells: SYO-1
T1 sequence (Q9H8M2 1-597): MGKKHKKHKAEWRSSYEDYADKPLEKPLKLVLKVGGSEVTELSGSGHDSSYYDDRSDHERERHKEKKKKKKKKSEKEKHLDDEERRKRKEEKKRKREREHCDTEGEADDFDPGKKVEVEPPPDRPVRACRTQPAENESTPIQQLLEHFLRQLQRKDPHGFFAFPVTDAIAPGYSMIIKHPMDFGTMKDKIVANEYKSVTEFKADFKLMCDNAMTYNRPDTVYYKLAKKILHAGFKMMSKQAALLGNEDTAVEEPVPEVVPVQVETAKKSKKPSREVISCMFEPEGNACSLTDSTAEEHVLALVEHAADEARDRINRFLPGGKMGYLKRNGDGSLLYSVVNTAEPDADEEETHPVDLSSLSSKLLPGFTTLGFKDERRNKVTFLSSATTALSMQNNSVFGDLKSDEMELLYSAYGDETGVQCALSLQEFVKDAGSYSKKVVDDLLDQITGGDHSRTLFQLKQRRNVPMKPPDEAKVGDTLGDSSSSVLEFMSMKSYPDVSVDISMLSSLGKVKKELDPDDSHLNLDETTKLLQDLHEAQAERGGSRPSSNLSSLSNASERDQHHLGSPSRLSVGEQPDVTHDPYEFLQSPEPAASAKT
Assay: SYO1 BRD9 NanoLuc Degradation Assay
Format: cell-based
Details: Table 6B; SYO-1 cells expressing 3×FLAG-NLuc-BRD9, 6 hours incubation, 1 μM top dose; read-out: SYO1 BRD9-NanoLuc degradation IC50
Protocol: Procedure: A stable SYO-1 cell line expressing 3×FLAG-NLuc-BRD9 was generated. On day 0 cells were seeded in 30 μL media into each well of 384-well cell culture plates. The seeding density was 8000 cells/well. On day 1, cells were treated with 30 nL DMSO or 30 nL of 3-fold serially DMSO-diluted compounds (10 points in duplicates with 1 μM as final top dose). Subsequently plates were incubated for 6 hours in a standard tissue culture incubator and equilibrated at room temperature for 15 minutes. Nanoluciferase activity was measured by adding 15 μL of freshly prepared Nano-Glo Luciferase Assay Reagent (Promega N1130), shaking the plates for 10 minutes and reading the bioluminescence using an EnVision reader.
Results: The Inhibition % was calculated using the following formula: % Inhibition=100×(LumHC−Lumsample)/(LumHC−LumLC). DMSO treated cells are employed as High Control (HC) and 1 μM of a known BRD9 degrader standard treated cells are employed as Low Control (LC).

SMILES	DC50 [nM]
COc1cc(-c2cn(C)c(=O)c3cnc(N(C)C)cc23)cc(OC)c1CN1CCC(CCCN2CCN(C3CCC(=O)NC3=O)C(=O)C2)CC1 (stereo not drawn) [Compound D117]	10 to 100
CN(C)c1cc2c(-c3cc(Cl)c(CN4CCC(CN5CCC6(CC5)CC(Oc5ccc7c(c5)C(=O)N(C5CCC(=O)NC5=O)C7=O)C6)CC4)c(Cl)c3)cn(C)c(=O)c2cn1 (stereo not drawn) [Compound D119]	10 to 100
COc1cc(-c2cn(C)c(=O)c3cnc(N4CCC4)cc23)cc(OC)c1CN1CCC(N2CCN(c3ccc4c(c3)CN(C3CCC(=O)NC3=O)C4=O)CC2)CC1 (stereo not drawn) [Compound D131]	< 10
COc1cc(-c2cn(C)c(=O)c3cnc(N(C)C)cc23)cc(OC)c1CN1CC(c2ccc3c(c2)C(=O)N(C2CCC(=O)NC2=O)C3=O)C1 (stereo not drawn) [Compound D132]	< 10
COc1cc(-c2cn(C)c(=O)c3cnc(N(C)C)cc23)cc(OC)c1CC1CCN(c2ccc3c(c2)C(=O)N(C2CCC(=O)NC2=O)C3=O)CC1 (stereo not drawn) [Compound D133]	< 10
C=CCn1cc(-c2cc(OC)c(CN3CCN(CCC4CCN(c5ccc6c(c5)C(=O)N(C5CCC(=O)NC5=O)C6=O)CC4)CC3)c(OC)c2)c2cc(N(C)C)ncc2c1=O (stereo not drawn) [Compound D134]	< 10
C=CCCn1cc(-c2cc(OC)c(CN3CCN(CCC4CCN(c5ccc6c(c5)C(=O)N(C5CCC(=O)NC5=O)C6=O)CC4)CC3)c(OC)c2)c2cc(N(C)C)ncc2c1=O (stereo not drawn) [Compound D135]	< 10
COc1cc(-c2cn(C)c(=O)c3cnc(N4CCC4)cc23)cc(OC)c1CN1CCC(CN2CCC3(CC2)CN(c2ccc4c(c2)C(=O)N(C2CCC(=O)NC2=O)C4=O)C3)CC1 (stereo not drawn) [Compound D136]	< 10
COc1cc(-c2cn(C)c(=O)c3cnc(N4CCC4)cc23)cc(OC)c1CN1CC(Oc2ccc3c(c2)C(=O)N(C2CCC(=O)NC2=O)C3=O)C1 (stereo not drawn) [Compound D137]	< 10
COc1cc(-c2cn(C)c(=O)c3cnc(N(C)C)cc23)cc(OC)c1CN1CC(Oc2ccn3c(=O)n(C4CCC(=O)NC4=O)nc3c2)C1 (stereo not drawn) [Compound D138]	< 10
C/C=C/n1cc(-c2cc(OC)c(CN3CCN(CCC4CCN(c5ccc6c(c5)C(=O)N(C5CCC(=O)NC5=O)C6=O)CC4)CC3)c(OC)c2)c2cc(N(C)C)ncc2c1=O (stereo not drawn) [Compound D139]	< 10
CCc1cc(-c2cn(C)c(=O)c3cnc(N(C)C)cc23)cc(Cl)c1CN1CCC(CN2CCC3(CC2)CC(Oc2ccc4c(c2)C(=O)N(C2CCC(=O)NC2=O)C4=O)C3)CC1 (stereo not drawn) [Compound D140]	< 10
COc1cc(-c2cn(C)c(=O)c3cnc(N4CCOCC4)cc23)cc(OC)c1CN1CCN(c2ccc3c(c2)C(=O)N(C2CCC(=O)NC2=O)C3=O)CC1 (stereo not drawn) [Compound D141]	< 10
COc1cc(-c2cn(C)c(=O)c3cnc(N4CCC4)cc23)cc(OC)c1CN1CCC2(CC1)CN(c1ccc3c(c1)C(=O)N(C1CCC(=O)NC1=O)C3)C2 (stereo not drawn) [Compound D142]	< 10
COc1cc(-c2cn(C)c(=O)c3cnc(N(C)C)cc23)cc(OC)c1CN1CC(CN2CCC3(CC2)CN(c2ccc4c(c2)CN(C2CCC(=O)NC2=O)C4=O)C3)C1 (stereo not drawn) [Compound D143]	< 10
COc1cc(-c2cn(C)c(=O)c3cnc(N4CCOCC4)cc23)cc(OC)c1CN1CC(Oc2ccn3c(=O)n(C4CCC(=O)NC4=O)nc3c2)C1 (stereo not drawn) [Compound D144]	< 10
COc1cc(-c2cn(C)c(=O)c3cnc(N(C)C)cc23)c(OC)cc1CN1CCN(CCC2CCN(c3ccc4c(c3)C(=O)N(C3CCC(=O)NC3=O)C4=O)CC2)CC1 (stereo not drawn) [Compound D145]	< 10
COc1cc(-c2cn(C)c(=O)c3cnc(N4CCC4)cc23)cc(OC)c1CN1CC(c2ccc3c(c2)C(=O)N(C2CCC(=O)NC2=O)C3=O)C1 (stereo not drawn) [Compound D146]	< 10
COc1cc(-c2cn(C)c(=O)c3cnc(N4CCOCC4)cc23)c(OC)cc1CN1CC(CN2CCC3(CC2)CN(c2ccc4c(c2)C(=O)N(C2CCC(=O)NC2=O)C4)C3)C1 (stereo not drawn) [Compound D147]	< 10
COc1cc(-c2cn(C)c(=O)c3cnc(N4CCC4)cc23)ccc1CN1CCC2(CC1)CN(c1ccc3c(c1)CN(C1CCC(=O)NC1=O)C3=O)C2 (stereo not drawn) [Compound D148]	< 10
COc1cc(-c2cn(C)c(=O)c3cnc(N4CCC4)cc23)ccc1CN1CCC2(CC1)CN(c1ccc3c(c1)C(=O)N(C1CCC(=O)NC1=O)C3)C2 (stereo not drawn) [Compound D149]	< 10
COc1cc(-c2cn(C)c(=O)c3cnc(N4CCC4)cc23)cc(OC)c1CN1CCC(c2ccc3c(c2)C(=O)N(C2CCC(=O)NC2=O)C3=O)CC1C(F)(F)F (stereo not drawn) [Compound D150]	< 10
C/C=C/Cn1cc(-c2cc(OC)c(CN3CCN(CCC4CCN(c5ccc6c(c5)C(=O)N(C5CCC(=O)NC5=O)C6=O)CC4)CC3)c(OC)c2)c2cc(N(C)C)ncc2c1=O (stereo not drawn) [Compound D151]	< 10
COc1cc(-c2cn(C)c(=O)c3cnc(N(C)C)cc23)cc(OC)c1CN1CC(CN2CCC3(CC2)CN(c2ccc4c(c2)C(=O)N(C2CCC(=O)NC2=O)C4)C3)C1 (stereo not drawn) [Compound D152]	< 10
COc1cc(-c2cn(C)c(=O)c3cnc(N4CCC4)cc23)cc(OC)c1CN1CC(CN2CCC3(CC2)CN(c2ccc4c(c2)CN(C2CCC(=O)NC2=O)C4=O)C3)C1 (stereo not drawn) [Compound D153]	< 10
COc1cc(-c2cn(C)c(=O)c3cnc(N(C)C)cc23)cc(OC)c1CN1CCN(c2ccn3c(=O)n(C4CCC(=O)NC4=O)nc3c2)CC1 (stereo not drawn) [Compound D154]	< 10
COc1cc(-c2cn(C)c(=O)c3cnc(N(C)C)cc23)cc(OC)c1CN1CCN(CC2CCN(c3ccc4c(c3)C(=O)N(C3CCC(=O)NC3=O)C4=O)CC2)CC1 (stereo not drawn) [Compound D155]	< 10
CNc1cc2c(=O)n(C)cc(-c3cc(OC)c(CN(C)CC45CC(C(=O)NCCCCCNc6cccc7c6C(=O)N(C6CCC(=O)NC6=O)C7=O)(C4)C5)c(OC)c3)c2cn1 (stereo not drawn) [Compound D172]	10 to 100

The remaining lines, values ahead:

DC50 [nM]	SMILES
< 10	CCN(CC)c1cc2c(-c3cc(OC)c(CN4CCN(CCC5CCN(c6ccc7c(c6)C(=O)N(C6CCC(=O)NC6=O)C7=O)CC5)CC4)c(OC)c3)cn(C)c(=O)c2cn1 (stereo not drawn) [Compound D115]
< 10	COc1cc(-c2cn(C)c(=O)c3cnc(N4CCC4)cc23)cc(OC)c1CN1CC(CN2CCC3(CC2)CN(c2ccc4c(c2)C(=O)N(C2CCC(=O)NC2=O)C4=O)C3)C1 (stereo not drawn) [Compound D116]
< 10	COc1cc(-c2cn(C)c(=O)c3cnc(N(C)C)cc23)cc(OC)c1CN1CCC(C(=O)N2CCC3(CC2)CC(Oc2cc4c(cc2F)C(=O)N(C2CCC(=O)NC2=O)C4=O)C3)CC1 (stereo not drawn) [Compound D118]
< 10	COc1cc(-c2cn(C)c(=O)c3cnc(N(C)C)cc23)cc(OC)c1CN1CCN(CCC2CCN(c3ccc4c(c3)C(=O)N(C3CCC(=O)NC3=O)C4)CC2)CC1 (stereo not drawn) [Compound D120]
< 10	COc1cc(-c2cn(C)c(=O)c3cnc(N(C)C)cc23)cc(OC)c1CN1CCN(CCC2CCN(c3ccc4c(c3)CN(C3CCC(=O)NC3=O)C4=O)CC2)CC1 (stereo not drawn) [Compound D121]
< 10	COc1cc(-c2cn(C3CC3)c(=O)c3cnc(N4CCC4)cc23)cc(OC)c1CN1CCC(N2CCN(c3ccc4c(c3)CN(C3CCC(=O)NC3=O)C4=O)CC2)CC1 (stereo not drawn) [Compound D122]
< 10	CCn1cc(-c2cc(OC)c(CN3CCC(N4CCN(c5ccc6c(c5)CN(C5CCC(=O)NC5=O)C6=O)CC4)CC3)c(OC)c2)c2cc(N3CCC3)ncc2c1=O (stereo not drawn) [Compound D123]
< 10	CCN(C)c1cc2c(-c3cc(OC)c(CN4CCN(CCC5CCN(c6ccc7c(c6)C(=O)N(C6CCC(=O)NC6=O)C7=O)CC5)CC4)c(OC)c3)cn(C)c(=O)c2cn1 (stereo not drawn) [Compound D124]
< 10	COc1cc(-c2cn(C)c(=O)c3cnc(N(C)C)cc23)cc(OC)c1CN1CCC(CN2CCC3(CC2)CN(c2ccc4c(c2)C(=O)N(C2CCC(=O)NC2=O)C4=O)C3)CC1 (stereo not drawn) [Compound D125]
< 10	COc1cc(-c2cn(C)c(=O)c3cnc(N4CCC4)cc23)cc(OC)c1CN1CCC2(CC1)CN(c1ccc3c(c1)C(=O)N(C1CCC(=O)NC1=O)C3=O)C2 (stereo not drawn) [Compound D126]
< 10	COc1cc(-c2cn(C)c(=O)c3cnc(N(C)C)cc23)cc(OC)c1CN1CCC2(CC1)CN(c1ccc3c(c1)CN(C1CCC(=O)NC1=O)C3=O)C2 (stereo not drawn) [Compound D127]
< 10	COc1cc(-c2cn(C)c(=O)c3cnc(N(C)C)cc23)cc(OC)c1CN1CCC2(CC1)CN(c1ccc3c(c1)C(=O)N(C1CCC(=O)NC1=O)C3)C2 (stereo not drawn) [Compound D128]
< 10	COc1cc(-c2cn(C)c(=O)c3cnc(N(C)C)cc23)cc(OC)c1CN1CCC(CN2CCC3(CC2)CC(Oc2cc4c(cc2F)C(=O)N(C2CCC(=O)NC2=O)C4=O)C3)CC1 (stereo not drawn) [Compound D129]
< 10	COc1cc(-c2cn(C)c(=O)c3cnc(N(C)C)cc23)cc(OC)c1CN1CCC(CN2CCC3(CC2)CC(Oc2ccc4c(c2)C(=O)N(C2CCC(=O)NC2=O)C4=O)C3)C(OC)C1 (stereo not drawn) [Compound D130]
